Laboratory results from patent publication US11925629B2, “Heterocyclic inhibitors of ERK1 and ERK2 and their use in the treatment of cancer” (Asana Biosciences, LLC, priority 2015, dated 2024).
pIC50: −log10 of the molar value. Read-outs that look alike come from different tables or passages of the source.

Legend:
Type in all cases: cell-based, human
[1] = test system: HCT116 (colorectal carcinoma, K Ras G13D) cells; test: Cell proliferation (Alamar Blue) assay, HCT116; conditions: Homo sapiens, HCT-116, HCT116 cells
In short: (§1)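 5000 cells/well, 16-24 h attach; cpd 0.0005-10 uM (3-fold dilns) x 72 h, 37° C./5% CO2; Alamar Blue 1× 1-3 h; fluor 540/590 nm; IC50, variable-slope sigmoid.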

[2] = test system: HT-29 (colorectal carcinoma, B-RafV600E) cells; test: Cell proliferation (Alamar Blue) assay, HT-29; conditions: Homo sapiens, HT-29, HT29 cells
In short: as §1

[3] = test system: phosphorylation of RSK1(S380) (the downstream target of ERK1/2); test: Phospho-RSK1(S380) ELISA assay in HT-29 cells; conditions: Homo sapiens, HT-29, HT29 cells, read-out: Mechanistic Cell Assay RSK1 Phos HT29 IC50
In short: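 IC50 values derive from a variable-slope sigmoidal fit of sandwich-ELISA signal (450 nm) for RSK1 Ser380 phosphorylation. The cells were B-RafV600E HT-29 colorectal line, exposed to serially diluted compound for 2 h after overnight seeding, then lysed at 4° C.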

Row | pIC50 [1] | pIC50 [2] | pIC50 ([3]; phospho-RSK1(S380)) | pIC50 [3] | SMILES
1 | < 5.60 | 5.60 to 6.30 | 6.60 to 7.00 | – | O=C(NC(CO)c1cccc(Cl)c1)c1cn(-c2ccnc(Nc3ccc4c(c3)CCO4)c2)cn1 (stereo not drawn) [Cmpd 163, N-(1-(3-chloro-phenyl)-2-hydroxy-ethyl)-1-(2-((2,3-dihydro-benzofuran-5-yl)amino)pyridin-4-yl)-1H-imidazole-4-carboxamide]
2 | 5.60 to 6.30 | 5.60 to 6.30 | < 5.60 | – | Cc1cnc(Nc2ccc(N3CCNCC3)cc2)nc1-n1ccc(C(=O)NC(CO)c2ccccc2)c1 (stereo not drawn) [Example 73, N-(2-hydroxy-1-phenylethyl)-1-(5-methyl-2-((4-(piperazin-1-yl)-phenyl)amino)pyrimidin-4-yl)-1H-pyrrole-3-carboxamide]
3 | 5.60 to 6.30 | 6.30 to 6.60 | 6.30 to 6.60 | – | CC[C@@H](CO)Nc1ncc(C)c(-n2ccc(C(=O)N[C@H](CO)c3ccc(F)c(Cl)c3)c2)n1 [Example 133, N-((S)-1-(3-chloro-4-fluorophenyl)-2-hydroxy-ethyl)-1-(2-(((S)-1-hydroxy-butan-2-yl)amino)-5-methyl-pyrimidin-4-yl)-1H-pyrrole-3-carboxamide]
4 | < 5.60 | < 5.60 | 5.60 to 6.30 | – | CCNc1ncc(C)c(-n2ccc(C(=O)NC(CO)c3ccccc3)c2)n1 (stereo not drawn) [Example 130, 1-(2-(ethyl-amino)-5-methyl-pyrimidin-4-yl)-N-(2-hydroxy-1-phenylethyl)-1H-pyrrole-3-carboxamide]
5 | < 5.60 | < 5.60 | – | < 5.60 | Cc1cnc(N[C@H]2CCOC2)nc1-n1cnc(C(=O)NCc2cccc(C#N)c2)c1 [Example 310, (S)-N-(3-cyanobenzyl)-1-(5-methyl-2-((tetrahydrofuran-3-yl)amino)pyrimidin-4-yl)-1H-imidazole-4-carboxamide]
6 | < 5.60 | 5.60 to 6.30 | – | 6.30 to 6.60 | Cc1cnc(NC2CCOCC2)nc1-n1cnc(C(=O)NCc2ccc(Cl)c(CO)c2)c1 [Example 330, N-(4-chloro-3-(hydroxymethyl)benzyl)-1-(5-methyl-2-((tetrahydro-2H-pyran-4-yl)amino)pyrimidin-4-yl)-1H-imidazole-4-carboxamide]
7 | < 5.60 | < 5.60 | 6.60 to 7.00 | – | CC[C@H](CO)Nc1cc(-n2cnc(C(=O)N[C@H](CO)c3cccc(Cl)c3)c2)ccn1 [Cmpd 105, N-((S)-1-(3-chlorophenyl)-2-hydroxy-ethyl)-1-(2-(((R)-1-hydroxy-butan-2-yl)amino)pyridin-4-yl)-1H-imidazole-4-carboxamide]
8 | < 5.60 | < 5.60 | 5.60 to 6.30 | – | O=C(N[C@H](CO)c1cccc(Cl)c1)c1cn(-c2ccnc(NC3CC3)c2)cn1 [Example 116, (S)-N-(1-(3-chlorophenyl)-2-hydroxy-ethyl)-1-(2-(cyclopropyl-amino)pyridin-4-yl)-1H-imidazole-4-carboxamide]
9 | 6.30 to 6.60 | 6.60 to 7.00 | 6.30 to 6.60 | – | Cc1cnc(Nc2ccc(F)c(N3CCNCC3)c2)nc1-n1ccc(C(=O)NC(CO)c2cccc(Cl)c2)c1 (stereo not drawn) [Example 213, N-(1-(3-chlorophenyl)-2-hydroxyethyl)-1-(2-((4-fluoro-3-(piperazin-1-yl)phenyl)amino)-5-methylpyrimidin-4-yl)-1H-pyrrole-3-carboxamide]
10 | < 5.60 | < 5.60 | 5.60 to 6.30 | – | COc1cnc(Nc2ccc(F)cc2Cl)nc1-n1ccc(C(=O)NC(CO)c2ccccc2)c1 (stereo not drawn) [Example 129, 1-(2-((2-chloro-4-fluorophenyl)amino)-5-methoxy-pyrimidin-4-yl)-N-(2-hydroxy-1-phenylethyl)-1H-pyrrole-3-carboxamide]
11 | < 5.60 | < 5.60 | < 5.60 | – | Cc1cn(-c2ccnc(Nc3ccc(F)cc3)n2)cc1C(=O)NC(CO)c1cccc(Cl)c1 (stereo not drawn) [Example 110, N-(1-(3-chloro-phenyl)-2-hydroxy-ethyl)-1-(2-((4-fluoro-phenyl)-amino)pyrimidin-4-yl)-4-methyl-1H-pyrrole-3-carboxamide]
12 | 5.60 to 6.30 | 6.60 to 7.00 | 6.30 to 6.60 | – | CC[C@@H](CO)Nc1ncc(C)c(-n2ccc(C(=O)N[C@H](CO)c3cccc(Cl)c3)c2)n1 [Example 219, N-((S)-1-(3-chlorophenyl)-2-hydroxyethyl)-1-(2-(((S)-1-hydroxybutan-2-yl)amino)-5-methylpyrimidin-4-yl)-1H-pyrrole-3-carboxamide]
13 | 5.60 to 6.30 | 6.30 to 6.60 | 5.60 to 6.30 | – | COC[C@@H](NC(=O)c1ccn(-c2nc(Nc3ccc4c(c3)OCO4)ncc2C)c1)c1ccccc1 [Example 64, (S)-1-(2-(benzo[d][1,3]dioxol-5-ylamino)-5-methyl-pyrimidin-4-yl)-N-(2-methoxy-1-phenylethyl)-1H-pyrrole-3-carboxamide]
14 | 5.60 to 6.30 | 6.60 to 7.00 | ≥ 7.00 | – | Cc1cnc(N[C@@H]2CCOC2)nc1-n1ccc(C(=O)N[C@H](CO)c2cccc(Cl)c2)c1 [Example 162, N-((S)-1-(3-chlorophenyl)-2-hydroxy-ethyl)-1-(5-methyl-2-(((R)-tetra-hydrofuran-3-yl)amino)pyrimidin-4-yl)-1H-pyrrole-3-carboxamide]
15 | 5.60 to 6.30 | 6.30 to 6.60 | 6.30 to 6.60 | – | Cc1cnc(NC2CCOC2)nc1-n1ccc(C(=O)N[C@H](CO)c2ccc(F)c(Cl)c2)c1 (stereo partly drawn) [Example 157, N-((S)-1-(3-chloro-4-fluorophenyl)-2-hydroxy-ethyl)-1-(5-methyl-2-((tetrahydro-furan-3-yl)amino)pyrimidin-4-yl)-1H-pyrrole-3-carboxamide]
16 | 5.60 to 6.30 | 5.60 to 6.30 | 5.60 to 6.30 | – | CNC(=O)c1ccc(Nc2ncc(C)c(-n3ccc(C(=O)NC(CO)c4cccc(Cl)c4)c3)n2)cc1 (stereo not drawn) [Example 196, N-(1-(3-chlorophenyl)-2-hydroxyethyl)-1-(5-methyl-2-((4-(methylcarbamoyl)phenyl)amino)pyrimidin-4-yl)-1H-pyrrole-3-carboxamide]
17 | 5.60 to 6.30 | 5.60 to 6.30 | 5.60 to 6.30 | – | Cc1cnc(Nc2ccc3occc3c2)nc1-n1cnc(C(=O)NC(CO)c2cccc(Cl)c2)c1 (stereo not drawn) [Example 132, 1-(2-(benzo-furan-5-ylamino)-5-methyl-pyrimidin-4-yl)-N-(1-(3-chlorophenyl)-2-hydroxy-ethyl)-1H-imidazole-4-carboxamide]
18 | < 5.60 | 5.60 to 6.30 | 5.60 to 6.30 | – | Cc1cnc(NC2CCOCC2)nc1-n1cnc(C(=O)NCc2ccccc2CN)c1 [Example 283, N-(2-(aminomethyl)benzyl)-1-(5-methyl-2-((tetrahydro-2H-pyran-4-yl)amino)pyrimidin-4-yl)-1H-imidazole-4-carboxamide]
19 | 5.60 to 6.30 | 5.60 to 6.30 | – | 6.30 to 6.60 | Cc1cnc(NC2CCOCC2)nc1-n1cnc(C(=O)NC(C)(C)c2cccc(Cl)c2CO)c1 [Example 341, N-(2-(3-chloro-2-(hydroxymethyl)phenyl)propan-2-yl)-1-(5-methyl-2-((tetrahydro-2H-pyran-4-yl)amino)pyrimidin-4-yl)-1H-imidazole-4-]
20 | 5.60 to 6.30 | 6.30 to 6.60 | 6.30 to 6.60 | – | Cc1cnc(Nc2ccc(F)c(C(=O)N(C)C)c2)nc1-n1ccc(C(=O)NC(CO)c2cccc(Cl)c2)c1 (stereo not drawn) [Example 194, N-(1-(3-chlorophenyl)-2-hydroxyethyl)-1-(2-((3-(dimethylcarbamoyl)-4-fluorophenyl)amino)-5-methylpyrimidin-4-yl)-1H-pyrrole-3-carboxamide]
21 | < 5.60 | < 5.60 | 5.60 to 6.30 | – | O=C(NC(CO)c1ccccc1)c1ccn(-c2nc(Nc3ccccc3Cl)ncc2F)c1 (stereo not drawn) [Example 67, 1-(2-((2-chloro-phenyl)amino)-5-fluoro-pyrimidin-4-yl)-N-(2-hydroxy-1-phenylethyl)-1H-pyrrole-3-carboxamide]
22 | < 5.60 | < 5.60 | 5.60 to 6.30 | – | COc1cc(C(=O)N2CCOCC2)c(F)cc1Nc1ncc(C)c(-n2ccc(C(=O)NC(CO)c3cccc(Cl)c3)c2)n1 (stereo not drawn) [Example 181, N-(1-(3-chlorophenyl)-2-hydroxyethyl)-1-(2-((5-fluoro-2-methoxy-4-(morpholine-4-carbonyl)phenyl)amino)-5-methylpyrimidin-4-yl)-1H-pyrrole-3-carboxamide]
23 | 6.30 to 6.60 | 5.60 to 6.30 | 6.60 to 7.00 | – | Cc1cnc(Nc2ccc3c(c2)OCO3)nc1-n1ccc(C(=O)NC(CO)c2ccc(F)cc2)c1 (stereo not drawn) [Example 172, 1-(2-(benzo[d][1,3]dioxol-5-ylamino)-5-methylpyrimidin-4-yl)-N-(1-(4-fluorophenyl)-2-hydroxyethyl)-1H-pyrrole-3-carboxamide]
24 | 5.60 to 6.30 | 6.30 to 6.60 | 6.60 to 7.00 | – | Cc1cnc(Nc2ccc3c(c2)OCO3)nc1-n1ccc(C(=O)N[C@H](CO)c2ccc(F)c(Cl)c2)c1 [Example 87, (S)-1-(2-(benzo[d][1,3]dioxol-5-ylamino)-5-methyl-pyrimidin-4-yl)-N-(1-(3-chloro-4-fluorophenyl)-2-hydroxy-ethyl)-1H-pyrrole-3-carboxamide]
25 | < 5.60 | < 5.60 | 5.60 to 6.30 | – | CCC(COC)Nc1ncc(C)c(-n2ccc(C(=O)NC(CO)c3cccc(Cl)c3)c2)n1 (stereo not drawn) [Example 127, N-(1-(3-chloro-phenyl)-2-hydroxy-ethyl)-1-(2-((1-methoxy-butan-2-yl)amino)-5-methyl-pyrimidin-4-yl)-1H-pyrrole-3-carboxamide]
